# Source: article PMC4468608, “A distinct p53 target gene set predicts for response to the selective p53–HDM2 inhibitor NVP-CGM097” (eLife, 2015)
# pIC50: −log10 of the molar value.
# Tested on: cell lines from the Cancer Cell Line Encyclopedia (CCLE)
# Experiment: High-throughput cell viability assay, CCLE cell line panel (n = 356)
# Type: cell-based, human
# Experimental: Cell lines were partitioned into sensitive and insensitive groups based on compound potency (IC50). […] All other cell lines were obtained from ATCC (American Type Culture Collection), DSMZ (Deutsche Sammlung von Mikroorganismen und Zellkulturen), and HSRRB (Health Science Research Resources Bank) and cultured in RPMI or Dulbecco's modified Eagle's medium plus 10% FBS (Invitrogen, Carlsbad, CA) at 37°C, 5% CO2.
smiles,measurement,setting,value
COc1cc2c(cc1OC(C)C)[C@H](c1ccc(Cl)cc1)N(c1ccc(N(C)C[C@H]3CC[C@H](N4CCNC(=O)C4)CC3)cc1)C(=O)C2 [NVP-CFC218],Amax,"42-MG-BA, TP53 MUT",-30.94%
same,sensitivity call,"42-MG-BA, TP53 MUT",insensitive (Sensitivity call for each compound was applied according to a cut-off of 4 µM for IC50 and -50% for Amax)
same,share of sensitive cells expressing wild-type p53,43/47,91.5%
same,share of p53 wild-type cell lines scored insensitive,57/100 p53 wild-type cell lines,57%
same,number of insensitive cell lines in wider cell line compendium,634 cell lines,557
same,number of sensitive cell lines in wider cell line compendium,634 cell lines,77
same,Amax,"697, TP53 WT",-96.96%
same,sensitivity call,"697, TP53 WT",sensitive (Sensitivity call for each compound was applied according to a cut-off of 4 µM for IC50 and -50% for Amax)
same,Amax,"8505C, TP53 MUT",-28.72%
same,sensitivity call,"8505C, TP53 MUT",insensitive (Sensitivity call for each compound was applied according to a cut-off of 4 µM for IC50 and -50% for Amax)
same,Amax,"AN3 CA, TP53 MUT",5.06%
same,sensitivity call,"AN3 CA, TP53 MUT",insensitive (Sensitivity call for each compound was applied according to a cut-off of 4 µM for IC50 and -50% for Amax)
same,Amax,"B-CPAP, TP53 MUT",1.71%
same,sensitivity call,"B-CPAP, TP53 MUT",insensitive (Sensitivity call for each compound was applied according to a cut-off of 4 µM for IC50 and -50% for Amax)
same,Amax,"BEN, TP53 MUT",0.13%
same,sensitivity call,"BEN, TP53 MUT",insensitive (Sensitivity call for each compound was applied according to a cut-off of 4 µM for IC50 and -50% for Amax)
same,Amax,"BFTC-905, TP53 MUT",0.25%
same,sensitivity call,"BFTC-905, TP53 MUT",insensitive (Sensitivity call for each compound was applied according to a cut-off of 4 µM for IC50 and -50% for Amax)
same,Amax,"BFTC-909, TP53 MUT",1.37%
same,sensitivity call,"BFTC-909, TP53 MUT",insensitive (Sensitivity call for each compound was applied according to a cut-off of 4 µM for IC50 and -50% for Amax)
same,Amax,"BT-20, TP53 MUT",1.40%
same,sensitivity call,"BT-20, TP53 MUT",insensitive (Sensitivity call for each compound was applied according to a cut-off of 4 µM for IC50 and -50% for Amax)
same,Amax,"BT-474, TP53 MUT",-3.44%
same,sensitivity call,"BT-474, TP53 MUT",insensitive (Sensitivity call for each compound was applied according to a cut-off of 4 µM for IC50 and -50% for Amax)
same,Amax,"CAL-12T, TP53 MUT",-18.61%
same,sensitivity call,"CAL-12T, TP53 MUT",insensitive (Sensitivity call for each compound was applied according to a cut-off of 4 µM for IC50 and -50% for Amax)
same,Amax,"CAL-78, TP53 MUT",-1.01%
same,sensitivity call,"CAL-78, TP53 MUT",insensitive (Sensitivity call for each compound was applied according to a cut-off of 4 µM for IC50 and -50% for Amax)
same,Amax,"CHL-1, TP53 MUT",-46.61%
same,sensitivity call,"CHL-1, TP53 MUT",insensitive (Sensitivity call for each compound was applied according to a cut-off of 4 µM for IC50 and -50% for Amax)
same,Amax,"CHP-212, TP53 WT",-71.98%
same,sensitivity call,"CHP-212, TP53 WT",sensitive (Sensitivity call for each compound was applied according to a cut-off of 4 µM for IC50 and -50% for Amax)
same,Amax,"COLO 205, TP53 MUT",-1.62%
same,sensitivity call,"COLO 205, TP53 MUT",insensitive (Sensitivity call for each compound was applied according to a cut-off of 4 µM for IC50 and -50% for Amax)
same,Amax,"COLO 792, TP53 WT",2.74%
same,sensitivity call,"COLO 792, TP53 WT",insensitive (Sensitivity call for each compound was applied according to a cut-off of 4 µM for IC50 and -50% for Amax)
same,Amax,"COR-L23, TP53 WT",-1.38%
same,sensitivity call,"COR-L23, TP53 WT",insensitive (Sensitivity call for each compound was applied according to a cut-off of 4 µM for IC50 and -50% for Amax)
same,Amax,"Capan-1, TP53 MUT",30.74%
same,sensitivity call,"Capan-1, TP53 MUT",insensitive (Sensitivity call for each compound was applied according to a cut-off of 4 µM for IC50 and -50% for Amax)
same,Amax,"ChaGo-K-1, TP53 MUT",-18.45%
same,sensitivity call,"ChaGo-K-1, TP53 MUT",insensitive (Sensitivity call for each compound was applied according to a cut-off of 4 µM for IC50 and -50% for Amax)
same,Amax,"DMS 53, TP53 MUT",9.69%
same,sensitivity call,"DMS 53, TP53 MUT",insensitive (Sensitivity call for each compound was applied according to a cut-off of 4 µM for IC50 and -50% for Amax)
same,Amax,"DU 145, TP53 MUT",-4.91%
same,sensitivity call,"DU 145, TP53 MUT",insensitive (Sensitivity call for each compound was applied according to a cut-off of 4 µM for IC50 and -50% for Amax)
same,Amax,"Daoy, TP53 MUT",2.94%
same,sensitivity call,"Daoy, TP53 MUT",insensitive (Sensitivity call for each compound was applied according to a cut-off of 4 µM for IC50 and -50% for Amax)
same,Amax,"EB2, TP53 MUT",-5.89%
same,sensitivity call,"EB2, TP53 MUT",insensitive (Sensitivity call for each compound was applied according to a cut-off of 4 µM for IC50 and -50% for Amax)
same,Amax,"EFE-184, TP53 MUT",-2.73%
same,sensitivity call,"EFE-184, TP53 MUT",insensitive (Sensitivity call for each compound was applied according to a cut-off of 4 µM for IC50 and -50% for Amax)
same,Amax,"EFO-21, TP53 MUT",5.85%
same,sensitivity call,"EFO-21, TP53 MUT",insensitive (Sensitivity call for each compound was applied according to a cut-off of 4 µM for IC50 and -50% for Amax)
same,Amax,"FU-OV-1, TP53 MUT",-2.32%
same,sensitivity call,"FU-OV-1, TP53 MUT",insensitive (Sensitivity call for each compound was applied according to a cut-off of 4 µM for IC50 and -50% for Amax)
same,Amax,"FaDu, TP53 MUT",8.93%
same,sensitivity call,"FaDu, TP53 MUT",insensitive (Sensitivity call for each compound was applied according to a cut-off of 4 µM for IC50 and -50% for Amax)
same,Amax,"G-401, TP53 WT",-87.03%
same,sensitivity call,"G-401, TP53 WT",sensitive (Sensitivity call for each compound was applied according to a cut-off of 4 µM for IC50 and -50% for Amax)
same,Amax,"GI-1, TP53 MUT",-2.97%
same,sensitivity call,"GI-1, TP53 MUT",insensitive (Sensitivity call for each compound was applied according to a cut-off of 4 µM for IC50 and -50% for Amax)
same,Amax,"GMS-10, TP53 MUT",-4.00%
same,sensitivity call,"GMS-10, TP53 MUT",insensitive (Sensitivity call for each compound was applied according to a cut-off of 4 µM for IC50 and -50% for Amax)
same,Amax,"HCC1806, TP53 MUT",1.11%
same,sensitivity call,"HCC1806, TP53 MUT",insensitive (Sensitivity call for each compound was applied according to a cut-off of 4 µM for IC50 and -50% for Amax)
same,Amax,"HCC1954, TP53 MUT",-0.81%
same,sensitivity call,"HCC1954, TP53 MUT",insensitive (Sensitivity call for each compound was applied according to a cut-off of 4 µM for IC50 and -50% for Amax)
same,Amax,"HCC-15, TP53 MUT",-21.49%
same,sensitivity call,"HCC-15, TP53 MUT",insensitive (Sensitivity call for each compound was applied according to a cut-off of 4 µM for IC50 and -50% for Amax)
same,Amax,"HCT-15, TP53 MUT",-20.00%
same,sensitivity call,"HCT-15, TP53 MUT",insensitive (Sensitivity call for each compound was applied according to a cut-off of 4 µM for IC50 and -50% for Amax)
same,Amax,"HLF, TP53 MUT",-3.09%
same,sensitivity call,"HLF, TP53 MUT",insensitive (Sensitivity call for each compound was applied according to a cut-off of 4 µM for IC50 and -50% for Amax)
same,Amax,"HMC-1-8, TP53 MUT",-1.67%
same,sensitivity call,"HMC-1-8, TP53 MUT",insensitive (Sensitivity call for each compound was applied according to a cut-off of 4 µM for IC50 and -50% for Amax)
same,Amax,"Hep G2, TP53 WT",-62.73%
same,sensitivity call,"Hep G2, TP53 WT",sensitive (Sensitivity call for each compound was applied according to a cut-off of 4 µM for IC50 and -50% for Amax)
same,pIC50,"Homo sapiens, 8-MG-BA, TP53 MUT",< 5.10
same,pIC50,"Homo sapiens, 42-MG-BA, TP53 MUT",< 5.10
same,pIC50,"Homo sapiens, 697, TP53 WT",5.80
same,pIC50,"Homo sapiens, 769-P, TP53 WT",5.52
same,pIC50,"Homo sapiens, 786-0, 786-O, TP53 MUT",< 5.10
same,pIC50,"Homo sapiens, 5637, TP53 MUT",< 5.10
same,pIC50,"Homo sapiens, 8505C, TP53 MUT",< 5.10
